# Measured values from article PMC8924551, “Functional Characterization of a Flavone Synthase That Participates in a Kumquat Flavone Metabolon” (Frontiers in Plant Science, 2022).
# Test system: T1, FcFNSII-2
# T1 construct: microsomes of Saccharomyces cerevisiae WAT11 co-expressing Arabidopsis ATR1 P450 reductase
# Assay: yeast microsome assay, UPLC-Q-TOF-MS, Michaelis-Menten fit
# Assay type: biochemical, Fortunella crassifolia
# Settings: 1 mM NADPH, 100 mM Tris/HCl pH 7.0, 30°C, 1 h; product apigenin
smiles,measurement,value
O=C1C[C@@H](c2ccc(O)cc2)Oc2cc(O)cc(O)c21 [naringenin],Km,3.77 µM
